PubChem BioAssay (NCI)
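Cells were grown in 96-well plates and exposed to each compound for 48 hours at five concentrations; endpoints were interpolated linearly between bracketing concentrations, or set to the highest concentration if not reached. At the TGI there is no net growth.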

Assays:
Assay in all cases: NCI anticancer screen, dose series, 48 h
U251 CNS = tested on: U251 CNS
SK-MEL-28 melanoma = tested on: SK-MEL-28 melanoma
786-0 renal = tested on: 786-0 renal
SF-539 CNS = tested on: SF-539 CNS
NCI-H23 lung = tested on: NCI-H23 lung
NCI/ADR-RES ovarian = tested on: NCI/ADR-RES ovarian
MDA-N = tested on: MDA-N
M14 melanoma = tested on: M14 melanoma
SF-268 CNS = tested on: SF-268 CNS
NCI-H226 lung = tested on: NCI-H226 lung
NCI-H460 lung = tested on: NCI-H460 lung
SK-MEL-2 melanoma = tested on: SK-MEL-2 melanoma
HL-60(TB) leukemia = tested on: HL-60(TB) leukemia
NCI-H522 lung = tested on: NCI-H522 lung
HT29 colon = tested on: HT29 colon
MDA-MB-231 breast = tested on: MDA-MB-231 breast
MALME-3M melanoma = tested on: MALME-3M melanoma
PC-3 prostate = tested on: PC-3 prostate
A498 renal = tested on: A498 renal
LOX IMVI melanoma = tested on: LOX IMVI melanoma
BT-549 breast = tested on: BT-549 breast
SW-620 colon = tested on: SW-620 colon
K-562 leukemia = tested on: K-562 leukemia
CAKI-1 renal = tested on: CAKI-1 renal
MDA-MB-435 = tested on: MDA-MB-435
KM12 colon = tested on: KM12 colon
OVCAR-8 ovarian = tested on: OVCAR-8 ovarian
SN12C renal = tested on: SN12C renal
ACHN renal = tested on: ACHN renal
CCRF-CEM leukemia = tested on: CCRF-CEM leukemia
RXF 393 renal = tested on: RXF 393 renal
T-47D breast = tested on: T-47D breast
OVCAR-4 ovarian = tested on: OVCAR-4 ovarian
MOLT-4 leukemia = tested on: MOLT-4 leukemia
A549 NSCLC = tested on: A549 NSCLC
HCT-116 colon = tested on: HCT-116 colon
UACC-257 melanoma = tested on: UACC-257 melanoma
SNB-75 CNS = tested on: SNB-75 CNS
HOP-92 NSCLC = tested on: HOP-92 NSCLC
SF-295 CNS = tested on: SF-295 CNS
DU-145 prostate = tested on: DU-145 prostate
MCF7 breast = tested on: MCF7 breast
UO-31 renal = tested on: UO-31 renal
COLO 205 colon = tested on: COLO 205 colon
IGROV1 ovarian = tested on: IGROV1 ovarian
HS 578T breast = tested on: HS 578T breast
SK-MEL-5 melanoma = tested on: SK-MEL-5 melanoma
OVCAR-3 ovarian = tested on: OVCAR-3 ovarian
RPMI-8226 leukemia = tested on: RPMI-8226 leukemia
HCT-15 colon = tested on: HCT-15 colon
SNB-19 CNS = tested on: SNB-19 CNS
SK-OV-3 ovarian = tested on: SK-OV-3 ovarian
TK-10 renal = tested on: TK-10 renal
UACC-62 melanoma = tested on: UACC-62 melanoma
HOP-62 NSCLC = tested on: HOP-62 NSCLC
EKVX NSCLC = tested on: EKVX NSCLC
OVCAR-5 ovarian = tested on: OVCAR-5 ovarian

Measured: TGI

CC(C)CC(N)C(=O)O (stereo not given)
not listed: EKVX NSCLC | OVCAR-5 ovarian
> 100 µM: all other assays above

C1=C2C3=[N+](CCCC3)CC2Cc2ccsc21 (stereo not given)
not listed: SF-539 CNS | RPMI-8226 leukemia
> 100 µM: all other assays above
